Laboratory results: ChEMBL document CHEMBL1687797, “A mecA-negative strain of methicillin-resistant Staphylococcus aureus with high-level β-lactam resistance contains mutations in three genes” (2010)
≈ marks a conversion by molar mass, not a printed value.

What was measured:
Type in all cases: functional
Staphylococcus aureus [1] = assay: Antimicrobial activity against methicillin-resistant and tetracycline-sensitive Staphylococcus aureus COLn
Staphylococcus aureus [2] = assay: Antimicrobial activity against methicillin-, tetracycline-susceptible and chromosomal mecA deficient Staphylococcus aureus COLnex
Staphylococcus aureus [3] = assay: Antimicrobial activity against beta-lactam-resistant and chromosomal mecA deficient Staphylococcus aureus CRB harboring PBP4 E183A F241R, GdpP N182K and AcrB I960V mutant genes selected after 21 days of serial passage in ceftobiprole; conditions: 504 h
Staphylococcus aureus [4] = assay: Antimicrobial activity against methicillin-resistant Staphylococcus aureus COL
Staphylococcus aureus [5] = assay: Antimicrobial activity against beta-lactam-resistant and chromosomal mecA deficient Staphylococcus aureus CRB harboring PBP4 E183A F241R, GdpP N182K and AcrB I960V mutant genes selected after 21 days of serial passage; conditions: 504 h

CO/N=C(\C(=O)N[C@@H]1C(=O)N2C(C(=O)O)=C(CSc3nc(=O)c(O)nn3C)CS[C@H]12)c1csc(N)n1 [CEFTRIAXONE]
MIC (Staphylococcus aureus [1]): > 256 µg/mL | MIC (Staphylococcus aureus [2]): 4 µg/mL (≈ 7.21 µM) | MIC (Staphylococcus aureus [3]): 256 µg/mL (≈ 462 µM)

CO[C@@]1(NC(=O)Cc2cccs2)C(=O)N2C(C(=O)O)=C(COC(N)=O)CS[C@@H]21 [CEFOXITIN]
MIC (Staphylococcus aureus [1]): 256 µg/mL (≈ 599 µM) | MIC (Staphylococcus aureus [2]): 4 µg/mL (≈ 9.36 µM) | MIC (Staphylococcus aureus [3]): 8 µg/mL (≈ 18.7 µM)

Cc1nnc(SCC2=C(C(=O)O)N3C(=O)[C@@H](NC(=O)Cn4cnnn4)[C@H]3SC2)s1 [CEFAZOLIN]
MIC (Staphylococcus aureus [1]): 256 µg/mL (≈ 563 µM) | MIC (Staphylococcus aureus [2]): 0.5 µg/mL (≈ 1.1 µM) | MIC (Staphylococcus aureus [3]): > 256 µg/mL

CCOc1ccc2ccccc2c1C(=O)N[C@@H]1C(=O)N2[C@@H]1SC(C)(C)[C@@H]2C(=O)O [NAFCILLIN]
MIC (Staphylococcus aureus [1]): 256 µg/mL (≈ 618 µM) | MIC (Staphylococcus aureus [2]): 0.5 µg/mL (≈ 1.21 µM) | MIC (Staphylococcus aureus [3]): 128 µg/mL (≈ 309 µM)

Nc1nc(/C(=N/O)C(=O)N[C@@H]2C(=O)N3C(C(=O)O)=C(/C=C4\CCN([C@@H]5CCNC5)C4=O)CS[C@H]23)ns1 [CEFTOBIPROLE]
MIC (Staphylococcus aureus [4]): 1 µg/mL (≈ 1.87 µM) | MIC (Staphylococcus aureus [1]): 1 µg/mL (≈ 1.87 µM) | MIC (Staphylococcus aureus [2]): < 0.25 µg/mL | MIC (Staphylococcus aureus [3]): 128 µg/mL (≈ 239 µM) | MIC (Staphylococcus aureus [5]): 128 µg/mL (≈ 239 µM)

CC1(C)S[C@@H]2[C@H](NC(=O)[C@H](N)c3ccccc3)C(=O)N2[C@H]1C(=O)O [AMPICILLIN]
MIC (Staphylococcus aureus [2]): < 0.25 µg/mL | MIC (Staphylococcus aureus [3]): 256 µg/mL (≈ 733 µM)
